# Assay results from patent US20180155757A1, “IDENTIFICATION OF BACTERIA THAT ARE RESISTANT TO CARBAPENEMS BY MEMBRANE IMPERVIOUSNESS” (BIOMÉRIEUX, priority 2015, published 2018).
# Read-outs that look alike come from different tables or passages of the source.
# Key:
# Assay in all cases: Etest MIC of indicator carbapenems on MH II agar without/with PMBN
# Type in all cases: cell-based
# K. pneumoniae 1002015 = conditions: Klebsiella pneumoniae, 1002015, K. pneumoniae 1002015 (porin−), Table 4, read-out: MIC
# Protocol: (§1) The determinations of antibiotic MIC were carried out on solid culture media with the Etest® method. To do this, Etest® strips (bioMérieux, France) were used: • Etest® Imipenem IM 32, and • Etest® Ertapenem ETP 32, and also solid culture media, differing from one another by virtue of their non-inhibitory concentrations of PMBN.
# (§2) These solid culture media are prepared in Petri dishes (0=145 mm; V=50 ml) on a base of MH II Agar (Becton Dickinson®, United States), more or less supplemented with PMBN. The PMBN concentrations range from 0 up to concentrations equivalent to one fifth of the MIC of PMBN (⅕ MICPMBN).
# (§3) Using a swab and the Retro C80™ rota-plater (bioMérieux, France), the culture media were inoculated with the bacteria, originating from an inoculum of 0.5 McFarland, prepared in 0.85% NaCl solution from colonies subcultured the day before on MH II agar.
# (§4) The various Etest® strips are then deposited on the surface of the culture media. After 16 to 20 hours of incubation at 35° C., the MICS were read.
# (§5) To do this, imipenem and ertapenem were used as indicator carbapenems. Non-inhibitory concentrations of PMBN, equivalent to concentrations of one tenth ( 1/10), one eighth (⅛) and one fifth (⅕) of the MIC of PMBN, were applied.
# (§6) In the light of the MICPMBN values previously identified, very predominantly much higher than 300 μg/ml, the following standard concentrations were retained and applied to the bacterial strains to be tested: 50, 100, 150, 200 and 300 μg/ml.
# (§7) By way of indicator carbapenems according to the invention, in addition to imipenem (IM) and ertapenem (ETP), meropenem (MP) was also tested. Like the other two antibiotics, meropenem was used in the form of Etest® strips (Etest® Meropenem MP 32 from the company bioMérieux, France).
# (§8) The methods used to prepare the new culture media and to carry out the antibiotic-sensitivity tests are identical to those described above.
# K. pneumoniae 1204034 = system: K. pneumoniae 1204034
# Protocol: as §1, §2, §3, §4, §5, §6, §7, §8
# E. aerogenes 9306071 = E. aerogenes 9306071 (membrane impermeability), Table 4a
# Protocol: as §1, §2, §3, §4, §5, §6, §7, §8
# E. cloacae 9402034 = E. cloacae 9402034 (membrane impermeability), Table 4a
# Protocol: as §1, §2, §3, §4, §5, §6, §7, §8
# E. aerogenes 9203076 = system: E. aerogenes 9203076
# Protocol: as §1, §2, §3, §4, §5, §6, §7, §8
# E. aerogenes 1204048 = E. aerogenes 1204048 (membrane impermeability), Table 4a, in µg/mL
# Protocol: as §1, §2, §3, §4, §5, §6, §7, §8
# E. coli 1204043 = system: E. coli 1204043
# Protocol: as §1, §2, §3, §4, §5, §6, §7, §8
# [1] = system: E. cloacae 1008080 (IMP producer); conditions: in µg/mL
# Method in brief: (§9)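 Etest imipenem/ertapenem/meropenem (IM 32, ETP 32, MP 32). Medium: MH II agar, PMBN 0 to ⅕ MIC. Inoculum: 0.5 McFarland, 0.85% NaCl, swabbed. Read: 16–20 h at 35° C.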
# [2] = system: E. aerogenes 1204050 (membrane impermeability); conditions: in µg/mL
# Method in brief: as §9
# [3] = system: E. cloacae 1204051 (membrane impermeability)
# Method in brief: as §9
# [4] = system: E. cloacae 1204053 (membrane impermeability)
# Method in brief: as §9
smiles,measurement,setting,value
"C[C@@H](O)[C@H]1C(=O)N2C(C(=O)O)=C(S[C@@H]3CN[C@H](C(=O)N(C)C)C3)[C@H](C)[C@H]12 [MP, meropenem]",MIC,K. pneumoniae 1002015; [PMBN] 0,2 µg/mL
same,MIC,K. pneumoniae 1002015; [PMBN] 150 μg/ml,0.19 µg/mL
same,MIC,K. pneumoniae 1002015; [PMBN] 200 μg/ml,0.19 µg/mL
same,MIC,"K. pneumoniae 1204034; K. pneumoniae 1204034 (membrane impermeability), [PMBN] 0, Table 4a",16 µg/mL
same,MIC,"K. pneumoniae 1204034; K. pneumoniae 1204034 (membrane impermeability), [PMBN] 100, Table 4a",1.5 µg/mL
same,MIC,"K. pneumoniae 1204034; K. pneumoniae 1204034 (membrane impermeability), [PMBN] 200, Table 4a",0.75 µg/mL
same,MIC,"K. pneumoniae 1204034; K. pneumoniae 1204034 (membrane impermeability), [PMBN] 300, Table 4a",0.38 µg/mL
same,MIC,"K. pneumoniae 1204034; Klebsiella pneumoniae, 1204034, K. pneumoniae 1204034 (porin−), [PMBN] 0, Table 4, read-out: MIC",12 µg/mL
same,MIC,"K. pneumoniae 1204034; Klebsiella pneumoniae, 1204034, K. pneumoniae 1204034 (porin−), [PMBN] 150 μg/ml, Table 4, read-out: MIC",0.5 µg/mL
same,MIC,"K. pneumoniae 1204034; Klebsiella pneumoniae, 1204034, K. pneumoniae 1204034 (porin−), [PMBN] 200 μg/ml, Table 4, read-out: MIC",0.25 µg/mL
same,MIC,E. aerogenes 9306071; [PMBN] 0,4 µg/mL
same,MIC,E. aerogenes 9306071; [PMBN] 100,1.5 µg/mL
same,MIC,E. aerogenes 9306071; [PMBN] 200,1.5 µg/mL
same,MIC,E. aerogenes 9306071; [PMBN] 300,0.5 µg/mL
same,MIC,E. cloacae 9402034; [PMBN] 0,16 µg/mL
same,MIC,E. cloacae 9402034; [PMBN] 100,2 µg/mL
same,MIC,E. cloacae 9402034; [PMBN] 200,2 µg/mL
same,MIC,E. cloacae 9402034; [PMBN] 300,3 µg/mL
same,MIC,"E. aerogenes 9203076; E. aerogenes 9203076 (membrane impermeability), [PMBN] 0, Table 4a, in µg/mL",4
same,MIC,"E. aerogenes 9203076; E. aerogenes 9203076 (membrane impermeability), [PMBN] 100, Table 4a, in µg/mL",2
same,MIC,"E. aerogenes 9203076; E. aerogenes 9203076 (membrane impermeability), [PMBN] 200, Table 4a, in µg/mL",1.5
same,MIC,"E. aerogenes 9203076; E. aerogenes 9203076 (membrane impermeability), [PMBN] 300, Table 4a, in µg/mL",0.5-0.75
same,MIC,"E. aerogenes 9203076; Klebsiella aerogenes, 9203076, E. aerogenes 9203076 (porin−), [PMBN] 0, Table 4, read-out: MIC",4 µg/mL
same,MIC,"E. aerogenes 9203076; Klebsiella aerogenes, 9203076, E. aerogenes 9203076 (porin−), [PMBN] 150 μg/ml, Table 4, read-out: MIC",0.5 µg/mL
same,MIC,"E. aerogenes 9203076; Klebsiella aerogenes, 9203076, E. aerogenes 9203076 (porin−), [PMBN] 200 μg/ml, Table 4, read-out: MIC",0.5 µg/mL
same,MIC,E. aerogenes 1204048; [PMBN] 0,>32
same,MIC,E. aerogenes 1204048; [PMBN] 100,1.5
same,MIC,E. aerogenes 1204048; [PMBN] 200,1
same,MIC,E. aerogenes 1204048; [PMBN] 300,0.5-1
same,MIC,"E. coli 1204043; E. coli 1204043 (membrane impermeability), [PMBN] 0, Table 4a, in µg/mL",4
same,MIC,"E. coli 1204043; E. coli 1204043 (membrane impermeability), [PMBN] 100, Table 4a, in µg/mL",0.75
same,MIC,"E. coli 1204043; E. coli 1204043 (membrane impermeability), [PMBN] 200, Table 4a, in µg/mL",0.38
same,MIC,"E. coli 1204043; E. coli 1204043 (membrane impermeability), [PMBN] 300, Table 4a, in µg/mL",0.19
same,MIC,"E. coli 1204043; Escherichia coli, 1204043, E. coli 1204043 (porin−), [PMBN] 0, Table 4, read-out: MIC",3 µg/mL
same,MIC,"E. coli 1204043; Escherichia coli, 1204043, E. coli 1204043 (porin−), [PMBN] 150 μg/ml, Table 4, read-out: MIC",0.064 µg/mL
same,MIC,"E. coli 1204043; Escherichia coli, 1204043, E. coli 1204043 (porin−), [PMBN] 200 μg/ml, Table 4, read-out: MIC",0.008 µg/mL
same,MIC,"[1]; [PMBN] 0, Table 4a",2
same,MIC,"[1]; [PMBN] 100, Table 4a",8
same,MIC,"[1]; [PMBN] 200, Table 4a",6
same,MIC,"[1]; [PMBN] 300, Table 4a",4-6
same,MIC,"[2]; [PMBN] 0, Table 4a",>32
same,MIC,"[2]; [PMBN] 100, Table 4a",2-4
same,MIC,"[2]; [PMBN] 200, Table 4a",1.5-2
same,MIC,"[2]; [PMBN] 300, Table 4a",1
same,MIC,"[3]; [PMBN] 0, Table 4a",4 µg/mL
same,MIC,"[3]; [PMBN] 100, Table 4a",2 µg/mL
same,MIC,"[3]; [PMBN] 200, Table 4a",0.25 µg/mL
same,MIC,"[3]; [PMBN] 300, Table 4a",0.25 µg/mL
same,MIC,"[4]; [PMBN] 0, Table 4a",4 µg/mL
same,MIC,"[4]; [PMBN] 100, Table 4a",2 µg/mL
same,MIC,"[4]; [PMBN] 200, Table 4a",2 µg/mL
same,MIC,"[4]; [PMBN] 300, Table 4a",1.5 µg/mL
